# Test results reported in EP4194000A1, “CISTUS MONSPELIENSIS EXTRACT AND COMPOSITIONS COMPRISING SAME FOR SKIN SOOTHING” (Pierre Fabre Dermo-Cosmétique, priority 2021, dated 2023).
# Ends that are not written are not given here.
# Key:
# Format in all cases: cell-based, humains
# [1] = test system: substance P; experiment: Substance P release by sensory neurons derived from human pluripotent stem cells, stimulated with veratridine (ELISA)
# Excerpt: Le but de cette étude est d'évaluer les propriétés modulatrices d'un extrait de Cistus monspeliensis dans l'inflammation neurogène cutanée.
# Pour se faire, les inventeurs ont développé une approche expérimentale in vitro. Un modèle original de neurones sensoriels humains a été développé après une reprogrammation cellulaire de cellules souches pluripotentes humaines. Ce modèle permet d'étudier les propriétés inhibitrices de la libération de la substance P par les composés à tester, étudié après la stimulation. Ce neuropeptide, la substance P, étant le principal neuromédiateur impliqué dans les voies de la sensibilisation dans l'inflammation neurogène, la douleur et le prurit.
# L'étape initiale est la reprogrammation de cellules souches pluripotentes humaines par l'utilisation successive de différents cocktails de facteurs de croissance.
# Les caractérisations phénotypiques et morphologiques ont permis de vérifier le pattern des neurones sensoriels avec notamment l'expression des récepteurs spécifiques tels que TrKA, 5HT-2, P2RX3 ou des canaux tels que TRPV1, Nav1.7, Nav1.8, TRPM8 avec une colocalisation avec des marqueurs neuronaux (Tuj1, Brn3A). Ces caractérisations permettent d'établir une durée de reprogrammation pour atteindre un pattern optimal qui est entre J40 et J47 après le début des traitements avec le cocktail des facteurs de croissance.
# L'essai est réalisé sur le modèle de neurones sensoriels en culture dans un mélange de milieu (RPMI/N2/B27/Glutamax) en absence (conditions contrôle) ou en présence (groupes traités) des produits à tester. Ces deux conditions sont testées en présence de Vératridine ou en son absence. […] Les niveaux du neuropeptide qu'est la substance P sont quantifiés dix minutes après l'ajout de Veratridine. […]
# La substance P libérée est mesurée dans les milieux d'incubation du groupe non traité (contrôle) et des groupes traités après ou non la stimulation de Vératridine. Elle est quantifiée par ELISA selon les instructions du fournisseur. […]
# [2] = test system: IL-17; experiment: IL-17 release by isolated, amplified Th17 lymphocytes stimulated with anti-CD3/anti-CD28 beads (ELISA)
# Excerpt: (§1) Le but de cette étude est d'évaluer l'activité potentielle d'un extrait de Cistus monspeliensis selon l'invention pour moduler la production de cytokines impliquées dans le psoriasis et la dermatite atopique. Pour se faire, des lymphocytes Th17 isolés et amplifiés à partir du sang circulant de donneurs sont utilisés comme modèle in vitro d'immunopathogénèse du psoriasis. […]
# (§2) Les lymphocytes T sont triés à partir de cellules sanguines récupérées de poches de sang fournies par l'Etablissement Français du sang, pour obtenir le phénotype suivant : CD4+ CD45RA- CXCR3- CCR6+. Le nombre de lymphocytes Th17 ainsi obtenu est augmenté par une mise en culture de ces cellules en présence d'un mélange de cytokines (IL-2, anti-TNFα et anti-INFγ) pendant deux semaines.
# (§3) Le test est réalisé sur des lymphocytes Th17 humains isolés et amplifiés en absence (conditions contrôle) ou en présence (traité) des composés à tester et sont stimulés ou non par les facteurs de stimulation anti-CD3/anti-CD28.
# (§4) Les teneurs des cytokines pro-inflammatoires de Th17 (IL-17 et IL-22) sont quantifiées 24h après la stimulation.
# (§5) Les lymphocytes sont traités avec les composés à tester 30 minutes avant la stimulation et pendant 24 heures.
# (§6) La Nicardipine, bloqueur des canaux calciques non-sélectifs a été testée (10 µg/ml), solubilisée également dans le DMSO, est utilisée comme contrôle positif. […]
# [3] = test system: IL-22; experiment: IL-22 release by isolated, amplified Th17 lymphocytes stimulated with anti-CD3/anti-CD28 beads (ELISA)
# Excerpt: as §1, §2, §3, §4, §5, §6
# [4] = target: T1, PAR-2 (Homo sapiens, UniProt P55085); experiment: Aequorin test, agonist activity on recombinant PAR-2; details: reference agonist for PAR-2; read-out: CE50 (the source's name)
# T1 construct: expressed in transfected cells; host or cells: CHO-K1 mt aequorin (parental line named; inferred to be the host of the recombinant cells)
# T1 sequence (P55085 26-397): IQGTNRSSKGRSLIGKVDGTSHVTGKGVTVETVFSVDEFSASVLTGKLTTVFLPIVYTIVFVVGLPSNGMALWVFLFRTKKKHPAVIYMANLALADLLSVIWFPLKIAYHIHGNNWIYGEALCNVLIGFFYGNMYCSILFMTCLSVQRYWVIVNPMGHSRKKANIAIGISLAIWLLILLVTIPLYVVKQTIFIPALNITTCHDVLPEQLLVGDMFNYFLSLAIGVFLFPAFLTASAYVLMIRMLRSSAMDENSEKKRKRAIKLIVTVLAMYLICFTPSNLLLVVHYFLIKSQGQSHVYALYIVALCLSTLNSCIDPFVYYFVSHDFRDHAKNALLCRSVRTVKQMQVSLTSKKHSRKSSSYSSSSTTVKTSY
# Excerpt: Les inventeurs ont évalué les effets d'un extrait de Cistus monspeliensis sur deux cibles étroitement reliées au prurit, PAR-2 et MRGPRX2.
# Les PAR-2 sont des récepteurs couplés aux protéines G. PAR-2 module les réponses inflammatoires, joue un rôle dans l'obésité, le métabolisme et les cancers. PAR-2 agit comme un senseur pour des enzymes protéolytiques générées pendant l'infection. PAR-2 serait retrouvé dans les kératinocytes épidermiques au niveau de la couche stratum granulosum. Des PAR-2 fonctionnels sont également exprimés dans plusieurs types de cellules immunitaires, telles que les éosinophiles, les neutrophiles, les monocytes, les macrophages, les cellules dendritiques, les mastocytes et les cellules T. Le PAR-2 est activé par clivage protéolytique par la tryptase qui est la protéase principale des cellules mastocytaires et la kallikréine qui est impliquée dans des processus inflammatoires et d'homéostasie épidermique. De plus, le clivage protéolytique de PAR-2 induit une signalisation calcique s'il est exprimé dans les neurones participant à la voie afférente. L'activation de MRGPRX2 ([…] G-Protein coupled Receptor) entraine une dégranulation des cellules mastocytaires avec par la suite des réactions pseudo-allergiques. […]
# [5] = 10µg/ml, Th17 stimulated anti-CD3/anti-CD28, 24h
compound,measurement,setting,value
"CCN(CC)CC(=O)Nc1c(C)cccc1C [Lidocaïne, lidocaïne]","substance P, Données brutes Moyenne","[1]; 100µM, under Vératridine 3µM stimulation","34,76 pg/ml"
same,libération de substance P (result in words),"[1]; 100µM, under Vératridine stimulation",réduit significativement la libération de substance P
COC(=O)C1=C(C)NC(C)=C(C(=O)OCCN(C)Cc2ccccc2)C1c1cccc([N+](=O)[O-])c1 (centres unmarked) [Nicardipine],IL-17 (moyenne),[2]; [5],721 pg/mL
same,inhibition at 10 µg/mL,[2]; Lymphocyte,43%
same,IL-22 (moyenne),[3]; [5],440 pg/mL
same,inhibition at 10 µg/mL,[3]; Lymphocyte,37%
COc1ccc(C(=O)O[C@H]2CC[C@@]3(C)[C@@H]4CC[C@H]5[C@]6(O)C[C@H](O)[C@@]7(O)[C@@H](CN8C[C@@H](C)CC[C@H]8[C@@]7(C)O)[C@]6(O)C[C@@]53O[C@]24O)cc1OC [Vératridine],"substance P, Données brutes Moyenne","[1]; Vératridine 3µM alone (stimulus), 10 minutes","96,26 pg/ml"
SLIGRL-NH2 [SLIGRL-NH2],EC50,[4],524 nM
